Paper PMC10107326 (Angewandte Chemie (International Ed. in English), 2022)
No end group written: not given here.

Legend:
HepG2 = assay: Cytotoxicity against HepG2; format: cell-based; conditions: HepG2 human cell line
large panel of pathogens = conditions: pure DD; cited from earlier work

## D32: engineered darobactin, core peptide WNWCKRW, cysteine disulfide-bonded to L-cysteine and lactic acid (not fully specified; also: Cys4 disulfide-bonded to L-cysteine, lactic acid attached, position not given here)
HepG2
  IC50: > 37 µg/mL

## WNWTRSF (also: bicyclic or more (positions not given here)) [DD]
Large panel of pathogens
  decrease in activity when comparing DA and DD, fold: 16 fold
